Key:
[1] = 5-day rat exploratory toxicology study (liver weight, clinical chemistry, histopathology); assay type: in vivo; conditions: 5 days
Procedure: All animal experiments were conducted in accordance with the Guiding Principles in the Use of Animals in Toxicology (http://www.toxicology.org/ai/air/air6.asp) and were approved by Abbott's Institutional Animal Care and Use Committee (IACUC). Male Sprague-Dawley rats [Crl:CD®(SD)IGS BR], weighing ~250 g at study initiation were obtained from Charles River Laboratories, Inc. (Wilmington, MA). Rats were housed singly in ventilated, stainless steel, wire-bottom hanging cages and fed non-certified Rodent Chow (Harlan Labs, Madison, WI), and water ad libitum and acclimated for at least 5 days after arrival. Rats were randomly assigned to various treatment groups (3 rats/group) and were dosed once daily by oral gavage with vehicle (0.2% hydroxypropylmethylcellulose at a dose volume of 10 ml/kg) or with 30, 100, or 200 mg/kg of A-998679. All rats were fasted overnight after their last dose, weighed and sacrificed under isoflurane anesthesia. For histopathological evaluation, liver, heart, kidney, spleen, bone (sternum) with marrow, gastrointestinal tract (duodenum with pancreas, jejunum, ileum, cecum, and colon), thymus, and lung were fixed in formalin, routinely processed, and embedded in paraffin. Paraffin sections (4 μm) were stained with hematoxylin and eosin. Liver and small intestine (jejunum) were also flash frozen in liquid nitrogen and stored at −80°C until processing for gene expression profiling. Serum clinical chemistry parameters were quantified using an Aeroset Clinical Chemistry Analyzer (Abbott Laboratories, Abbott Park, IL) and included alanine amino transferase (ALT), aspartate amino transferase (AST), gamma glutamyltransferase (GGT), and alkaline phosphatase (ALP) activities.

CYP1A1 = CYP1A1 mRNA induction in primary human hepatocytes; assay type: cell-based; conditions: 24 h, dose-dependent
Procedure: (§1) Rat hepatocytes were isolated in a perfusion procedure as described previously (Elliget and Kolaja, [1983]; Waring et al., [2001]). The beagle dog hepatocytes were isolated in the same manner, except for adjustment of flow rate and buffer volume to scale to liver size. Cells were plated at a seeding density of 1.0 × 10^6 cells per well on 6-well, collagen-type I coated plates (BD Biosciences, Bedford, MA) in hepatocyte plating medium (Celsis, Baltimore, MD). Cells were allowed to attach for 24 h in a 37°C humidified incubator with a 5% CO2 atmosphere and were dosed for 24 h (rat) or 48 h (dog) with vehicle control [0.1% DMSO (v/v)] or 10 μM A-998679 in fresh treatment media (Celsis hepatocyte incubation media) every 24 h. After the last incubation, cells were lysed in 1 ml of Qiazol (Qiagen) and stored at −80°C until RNA isolation. Cryopreserved human hepatocytes (donor designation Hu4198; Invitrogen Life Technologies, Carlsbad, CA) were thawed and plated according to the manufacturer's protocol and allowed to incubate for 24 h. […]
(§2) RNA samples were diluted with RNase-free molecular biology grade water to a concentration of 20 ng/μl total RNA. […] Results were analyzed by calculating the fold change of CYP1A1 and/or CYP1A2 mRNA levels normalized to 28S rRNA (ΔΔ Ct) in compound treated cells or tissues compared to vehicle levels. […]

CYP1A2 = CYP1A2 mRNA induction in primary dog hepatocytes; assay type: cell-based; conditions: 10 μM, 48 h, data not shown
Procedure: as §1, §2

rat Cyp 2E1 = target: T1, rat Cyp 2E1 (Rattus norvegicus, UniProt P05182); test: Recombinant rat Cyp phenotype profiling, 2E1; assay type: in vitro ADME; conditions: 60 min
T1 construct: purchased BD Gentest; host or cells: baculovirus infected insect cells
Procedure: Identification of the drug metabolizing enzymes (DMEs) of A-998679 was studied in cDNA expressed recombinant enzymes prepared from baculovirus infected insect cells over-expressing rat Cyp isoforms (BD Gentest, Woburn, MA) as listed in Table 2. Incubations were conducted in duplicate using Supersomes. The incubation mixture contained 100 pmol/ml of enzymes, except for Cyp1a1 (200 pmol/ml), 0.1 or 0.21 μM of [^3H]A-998679 in 100 mM phosphate buffer (pH 7.4). Reactions were initiated with the addition of NADPH at a final concentration of 1 mM and incubated at 37°C for 60 min. At the end of the incubation period, the incubations were terminated by the addition of acetonitrile/ethanol (50/50, v/v) solution. Insect control samples lacking expressed enzyme were used as negative control. The degree of metabolism of A-998679 was assessed by percent of parent remaining using the radio-HPLC method described below.
Radiolabeled components from the above assays were profiled following separation by HPLC with on line radioflow detector. The system consisted of an Agilent 1100 Series quaternary pump and autosampler connected to a Packard 500TR flow scintillation detector. The data were processed using the Radiomatic™ Flo-one® software v3.65. The scintillant (Perkin Elmer FLO-SCINT™ III) flow was maintained at 3 ml/min. […]

T1 sequence (P05182 whole entry): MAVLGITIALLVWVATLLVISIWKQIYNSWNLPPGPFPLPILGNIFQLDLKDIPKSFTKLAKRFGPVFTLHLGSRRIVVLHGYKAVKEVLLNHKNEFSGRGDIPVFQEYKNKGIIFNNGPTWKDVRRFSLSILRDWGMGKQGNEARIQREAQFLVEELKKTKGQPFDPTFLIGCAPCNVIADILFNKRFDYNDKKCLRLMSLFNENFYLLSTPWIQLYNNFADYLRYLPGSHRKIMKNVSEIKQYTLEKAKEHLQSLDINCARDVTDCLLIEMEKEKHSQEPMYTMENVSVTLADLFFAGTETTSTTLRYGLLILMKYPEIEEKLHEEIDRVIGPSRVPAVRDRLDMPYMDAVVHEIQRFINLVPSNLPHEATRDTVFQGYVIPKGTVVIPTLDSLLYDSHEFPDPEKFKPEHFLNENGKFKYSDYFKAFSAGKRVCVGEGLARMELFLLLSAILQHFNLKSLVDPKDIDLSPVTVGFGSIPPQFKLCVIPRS

- lowest concentration inducing CYP1A1 mRNA (CYP1A1): 3 µM
- CYP1A2 mRNA induction (CYP1A2): also observed
- % parent remaining (rat Cyp 2E1; recombinant rat Cyp 2E1, 0.10 μM): 95.5%
- % parent remaining (rat Cyp 2E1; recombinant rat Cyp 2E1, 0.21 μM): 91.9%
Structure (SMILES): N#Cc1cccc(-c2noc(-c3cccnc3)n2)c1 [A-998679, 3-(5-pyridin-3-yl-1,2,4-oxadiazol-3-yl) benzonitrile]
- increase in relative liver weight ([1]; 200 mg/kg/day): ~ 25%
- clinical chemistry parameters ([1]; 30-200 mg/kg/day): No significant changes
- histopathology ([1]; 30-200 mg/kg/day): No significant changes
- change in relative liver weight ([1]; lower doses (30 and 100 mg/kg/day)): no change
